According to the CheMixHub viscosity set:
“And” between values parts separate entries of the source, which are not always exact repeats. Equal entries are not always repeated.

Assay: xn = mol fraction of the nth substance listed

CN(CCO)CCO + O
viscosity
Conditions	293.15 K	298.15 K	303.15 K	308.15 K	313.15 K	323.15 K
100 kPa, x1 = 0.131	–	9.324 mPa·s	–	–	–	–
101 kPa, x1 = 0.06	–	–	2.548 mPa·s	–	1.906 mPa·s	–
101 kPa, x1 = 0.1	7.325 mPa·s	–	4.901 mPa·s	–	3.458 mPa·s	2.551 mPa·s
101 kPa, x1 = 0.11	–	–	5.312 mPa·s	–	3.729 mPa·s	2.777 mPa·s
101 kPa, x1 = 0.1991	26.19 mPa·s	–	15.41 mPa·s	–	9.684 mPa·s	6.517 mPa·s
101 kPa, x1 = 0.2985	56.54 mPa·s	–	31.07 mPa·s	–	18.14 mPa·s	11.42 mPa·s
101 kPa, x1 = 0.3975	84.73 mPa·s	–	45.33 mPa·s	–	25.74 mPa·s	15.8 mPa·s
101 kPa, x1 = 0.4963	103.2 mPa·s	–	54.91 mPa·s	–	31.5 mPa·s	18.96 mPa·s
101 kPa, x1 = 0.5949	113.9 mPa·s	–	60.93 mPa·s	–	–	20.85 mPa·s
101 kPa, x1 = 0.6934	115.5 mPa·s	–	62.48 mPa·s	–	35.73 mPa·s	21.72 mPa·s
101 kPa, x1 = 0.7916	113.6 mPa·s	–	61.99 mPa·s	–	35.44 mPa·s	21.95 mPa·s
101 kPa, x1 = 0.8896	109.8 mPa·s	–	59.49 mPa·s	–	35.12 mPa·s	–
101 kPa, x2 = 0.815	–	17.44 mPa·s	–	–	–	–
101 kPa, x2 = 0.9	–	9.66 mPa·s	–	–	–	–
101 kPa, x2 = 0.91	6.35 mPa·s	5.4 mPa·s and 5.25 mPa·s	4.34 mPa·s	–	–	–
101 kPa, x2 = 0.9391	–	3.27 mPa·s	–	–	–	–
101 kPa, x2 = 0.94	3.53 mPa·s	2.99 mPa·s	2.54 mPa·s	–	1.89 mPa·s	1.45 mPa·s
101 kPa, x2 = 0.96	2.264 mPa·s	1.921 mPa·s	1.695 mPa·s	–	1.32 mPa·s	–
101.3 kPa, x1 = 0.02	1.541 mPa·s	1.316 mPa·s	–	–	0.931 mPa·s	0.773 mPa·s
101.3 kPa, x1 = 0.04	2.268 mPa·s	1.924 mPa·s	1.697 mPa·s	–	1.325 mPa·s	1.068 mPa·s
101.3 kPa, x1 = 0.06	3.637 mPa·s	3.036 mPa·s	2.594 mPa·s	–	–	–
101.3 kPa, x1 = 0.09	6.345 mPa·s	5.245 mPa·s	4.325 mPa·s	–	3.107 mPa·s	2.367 mPa·s
101.3 kPa, x1 = 0.1	11.84 mPa·s	9.196 mPa·s	7.437 mPa·s	–	5.101 mPa·s	3.599 mPa·s
101.3 kPa, x1 = 0.2	22.64 mPa·s	17.25 mPa·s	–	–	8.843 mPa·s	6.015 mPa·s
101.3 kPa, x1 = 0.3	37.14 mPa·s	29.03 mPa·s	22.69 mPa·s	–	14.91 mPa·s	9.618 mPa·s
101.3 kPa, x1 = 0.4	71.95 mPa·s	58.29 mPa·s	42.41 mPa·s	–	24.45 mPa·s	14.36 mPa·s
101.3 kPa, x1 = 0.6	101.9 mPa·s	81.67 mPa·s	54.66 mPa·s	–	34.23 mPa·s	19.22 mPa·s
101.33 kPa, x1 = 0.017	–	–	1.137 mPa·s	–	0.907 mPa·s	–
101.33 kPa, x1 = 0.036	2.262 mPa·s	1.941 mPa·s	1.686 mPa·s	–	–	1.051 mPa·s
101.33 kPa, x1 = 0.061	3.69 mPa·s	3.092 mPa·s	–	–	–	–
101.33 kPa, x1 = 0.092	6.452 mPa·s	5.253 mPa·s	4.359 mPa·s	3.671 mPa·s	3.112 mPa·s	2.309 mPa·s
101.33 kPa, x1 = 0.13	11.7 mPa·s	9.208 mPa·s	7.436 mPa·s	6.097 mPa·s	–	3.642 mPa·s
